Test results as given in the NIST ThermoML archive (doi:10.1021/je050498q).

Test: mn = molality of the nth substance listed, in mol/kg
Conditions: 101 kPa, Liquid

O=C([O-])[C@H](O)[C@@H](O)C(=O)[O-].[Na+].[Na+] [disodium L-tartrate] + O
Conditions | mass density, 298.15 K [kg/m3] | mass density, 308.15 K [kg/m3] | mass density, 318.15 K [kg/m3] | speed of sound, 298.15 K [m/s] | speed of sound, 308.15 K [m/s] | speed of sound, 318.15 K [m/s]
m1 = 0.0325 | 1001.45 | 998.34 | 994.47 | 1502 | 1524.8 | 1541.3
m1 = 0.0351 | 1001.8 | 998.7 | 994.82 | 1502.3 | 1525.2 | 1541.7
m1 = 0.0405 | 1002.51 | 999.4 | 995.52 | 1503.1 | 1526 | 1542.3
m1 = 0.0552 | 1004.48 | 1001.34 | 997.43 | 1505.4 | 1528 | 1544.3
m1 = 0.0576 | 1004.79 | 1001.64 | 997.72 | 1505.7 | 1528.4 | 1544.6
m1 = 0.0673 | 1006.08 | 1002.91 | 998.99 | 1507.2 | 1529.7 | 1545.9
m1 = 0.0747 | 1007.06 | 1003.87 | 999.92 | 1508.2 | 1530.7 | 1547
m1 = 0.0814 | 1007.94 | 1004.73 | 1000.77 | 1509.9 | 1531.6 | 1547.7
m1 = 0.1365 | 1015.14 | 1011.79 | 1007.83 | 1517.3 | 1539.2 | 1554.9
m1 = 0.2798 | 1033.29 | 1029.68 | 1025.48 | 1537.5 | 1558.2 | 1572.9
m1 = 0.4159 | 1049.92 | 1046.11 | 1041.78 | 1556.3 | 1575.8 | 1589.4
m1 = 0.5661 | 1067.63 | 1063.54 | 1059.16 | 1576.4 | 1594.6 | 1607.3
m1 = 0.7158 | 1084.68 | 1080.39 | 1075.77 | 1598.6 | 1615.3 | 1624.1
m1 = 0.888 | 1103.52 | 1098.96 | 1094.15 | 1618.5 | 1633.8 | 1644
m1 = 1.055 | 1121.13 | 1116.46 | 1111.35 | 1639.6 | 1653.6 | 1662.2
m1 = 1.211 | 1137 | 1132.16 | 1126.7 | 1659 | 1671.7 | 1679.2
m1 = 1.412 | 1156.69 | 1151.68 | 1146.41 | 1683.6 | 1694.5 | 1701.2
m1 = 1.593 | 1173.71 | 1168.58 | 1163.14 | 1705.1 | 1714.6 | 1719.8
m1 = 1.749 | 1187.9 | 1182.99 | 1176.91 | 1723.3 | 1732 | 1734.8
m1 = 2.203 | 1226.56 | 1221.08 | 1215.23 | 1774 | 1778.7 | 1779.7
